How the values were obtained:
Assay in all cases: relative viability (nuclei count vs DMSO), 5 days (fraction); higher = more cells survive
[1] = compound: c1ccc2c(CCNc3ccc(Nc4ccncc4)cc3)c[nH]c2c1 [Serdemetan] + Cc1nc(NC(=O)N2CCC[C@H]2C(N)=O)sc1-c1ccnc(C(C)(C)C(F)(F)F)c1 [Alpelisib] (partner 2 µM)
Procedure, shortened: (§1)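 After 5 days of treatment, lung cancer cells in 1536-well plates were fixed and stained in a single step (final 0.05% Triton X-100, 1% formaldehyde, 1 ug/ml Hoechst) and their nuclei counted on 4× images. Treatment had been applied by pin tool the day after seeding as one drug alone or as a fixed anchor-drug dose with five library-drug doses (not always all listed) in √10 steps. Relative viability is the nuclei count of treated wells divided by that of vehicle wells, and values are medians of duplicate plates.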

[2] = compound: C1CC(C2=C(C1)C3=C(N2)C=CC(=C3)Cl)C(=O)N [Selisistat] + NC(=O)Nc1cc(-c2cccc(F)c2)sc1C(=O)N[C@H]1CCCNC1 [AZD7762] (partner 0.2 µM)
Procedure, shortened: as §1

[3] = compound: C1CC(C2=C(C1)C3=C(N2)C=CC(=C3)Cl)C(=O)N [Selisistat] + Cc1cc(Nc2cc(N3CCN(C)CC3)nc(Sc3ccc(NC(=O)C4CC4)cc3)n2)n[nH]1 [Tozasertib] (partner 0.1 µM)
Procedure, shortened: as §1

[4] = compound: C1CC(C2=C(C1)C3=C(N2)C=CC(=C3)Cl)C(=O)N [Selisistat] + COc1cccc2cc(-c3nc([C@H]4CC[C@H](C(=O)O)CC4)n4ncnc(N)c34)[nH]c12 [OSI-027] (partner 0.5 µM)
Procedure, shortened: as §1

Cell Line | relative viability ([1]; first compound 0.04 µM) | relative viability ([1]; first compound 0.1265 µM) | relative viability ([1]; first compound 0.4 µM) | relative viability ([1]; first compound 1.265 µM) | relative viability ([1]; first compound 4 µM) | relative viability ([2]; first compound 0.4 µM) | relative viability ([2]; first compound 1.265 µM) | relative viability ([2]; first compound 4 µM) | relative viability ([2]; first compound 12.65 µM) | relative viability ([2]; first compound 40 µM) | relative viability ([3]; first compound 0.4 µM) | relative viability ([3]; first compound 1.265 µM) | relative viability ([3]; first compound 4 µM) | relative viability ([3]; first compound 12.65 µM) | relative viability ([3]; first compound 40 µM) | relative viability ([4]; first compound 0.4 µM) | relative viability ([4]; first compound 1.265 µM) | relative viability ([4]; first compound 4 µM) | relative viability ([4]; first compound 12.65 µM) | relative viability ([4]; first compound 40 µM)
HCC-78 | 0.337 | 0.36 | 0.349 | 0.364 | 0.262 | 0.626 | 0.669 | 0.431 | 0.683 | 0.502 | 0.486 | 0.418 | 0.398 | 0.407 | 0.424 | 0.379 | 0.346 | 0.316 | 0.382 | 0.359
NCI-H727 | 0.597 | 0.522 | 0.593 | 0.487 | 0.418 | 0.675 | 0.563 | 0.369 | 0.615 | 0.527 | 0.681 | 0.518 | – | 0.483 | 0.69 | 0.587 | 0.641 | – | 0.641 | 0.511
NCI-H2087 | 1.1 | 0.986 | 1.09 | 0.669 | 0.532 | 1.31 | 1.14 | – | 1.19 | 1.25 | 0.247 | 0.236 | – | 0.164 | 0.272 | 0.646 | 0.645 | – | 0.516 | 0.652
BEN | 0.929 | 1.02 | 0.987 | 0.99 | 0.824 | 0.74 | 0.535 | 0.471 | 0.71 | 0.649 | 0.55 | 0.406 | 0.385 | 0.505 | 0.471 | 0.263 | 0.251 | 0.282 | 0.282 | 0.274
LCLC-103H | 0.944 | 0.957 | 0.923 | 0.844 | 0.764 | 0.807 | 0.744 | 0.853 | 0.751 | 0.749 | 0.435 | 0.515 | 0.494 | 0.47 | 0.565 | 0.486 | 0.469 | 0.348 | 0.479 | 0.442
EKVX | 0.876 | 0.911 | 0.804 | 0.676 | 0.619 | 0.682 | 0.732 | 0.705 | 0.699 | 0.802 | 0.352 | 0.37 | 0.421 | 0.376 | 0.369 | 0.756 | 0.754 | 0.689 | 0.69 | 0.697
LXF-289 | 1.02 | 1.01 | 0.937 | 0.844 | 0.844 | 1.12 | 1.14 | 0.936 | 1.03 | 1.1 | 0.18 | 0.162 | 0.2 | 0.179 | 0.237 | 0.797 | 0.806 | 0.667 | 0.788 | 0.838
ABC-1 | 1.16 | 1.14 | 0.965 | 0.812 | 0.486 | 0.791 | 0.778 | – | 0.829 | 1.08 | 0.184 | 0.179 | 0.17 | 0.176 | 0.149 | 0.499 | 0.447 | 0.331 | 0.442 | 0.436
NCI-H650 | 0.965 | 1.15 | 1.11 | 0.92 | 0.67 | 1.15 | 0.988 | 1 | 0.867 | 1.13 | 0.783 | 0.674 | 0.717 | 0.622 | 0.66 | 0.524 | 0.523 | 0.715 | 0.496 | 0.555
NCI-H2085 | 0.952 | 0.911 | 0.801 | 0.573 | 0.585 | 1.06 | 1.02 | 0.67 | 0.992 | 0.983 | 0.852 | 0.779 | 0.697 | 0.805 | 0.806 | 0.822 | 0.733 | 0.397 | 0.79 | 0.921
NCI-H1793 | 0.704 | 0.738 | 0.754 | 0.53 | 0.347 | 0.477 | 0.461 | – | 0.53 | 0.73 | 0.324 | 0.395 | – | 0.326 | 0.582 | 0.28 | 0.245 | – | 0.299 | 0.345
LC-2-ad | 0.987 | 0.804 | 0.803 | – | 0.806 | 0.827 | 0.814 | 0.68 | 0.775 | 0.9 | 0.535 | – | 0.378 | 0.433 | 0.529 | 0.987 | – | 0.693 | 0.85 | 0.794
NCI-H1355 | 0.952 | 0.786 | 0.752 | 0.875 | 0.774 | 0.774 | 0.753 | 0.717 | 0.819 | 0.814 | 0.599 | 0.648 | 0.519 | 0.497 | 0.589 | 0.465 | 0.426 | 0.281 | 0.407 | 0.404
H3255 | 0.657 | 0.693 | 0.585 | 0.683 | 0.525 | 0.898 | 0.861 | 0.733 | 0.895 | 0.806 | 0.624 | 0.772 | 0.589 | 0.657 | 0.717 | 0.621 | 0.553 | 0.741 | 0.579 | 0.648
NCI-H1993 | 0.715 | 0.802 | 0.621 | – | 0.67 | 0.793 | 0.791 | – | 0.954 | 0.816 | 0.58 | 0.579 | 0.57 | 0.569 | 0.539 | 0.506 | 0.584 | 0.618 | 0.554 | 0.542
NCI-H1734 | 0.61 | – | 0.259 | 0.122 | 0.178 | 0.594 | 0.485 | 0.453 | 0.505 | 0.607 | 0.278 | 0.265 | 0.283 | 0.263 | 0.228 | 0.616 | 0.636 | 0.491 | 0.545 | 0.685
HOP-62 | 0.966 | 0.914 | 0.947 | 0.76 | 0.841 | 0.62 | 0.568 | 0.696 | 0.633 | 1.2 | 0.362 | 0.383 | 0.464 | 0.375 | 0.372 | 0.856 | 0.788 | 0.826 | 0.809 | 0.915

— the supplement of paper PMC10307832
